Measured values reported in article PMC4122966, “Novel VCP modulators mitigate major pathologies of rd10, a mouse model of retinitis pigmentosa” (Scientific Reports, 2014).

Tested on: HeLa cells
Experiment: immunocytochemistry of laminin γ1 aggregation in tunicamycin-treated cells
Format: cell-based
Details: HeLa, Tm 0.5 μg/ml, 5 hours, 50 μM KUS
Experimental: Figure 4 KUSs and ATP each prevented a decrease of ATP levels and ameliorated ER stress in tunicamycin-treated cells. (a) Immunocytochemical analyses of HeLa cells by an anti-laminin γ1 antibody. HeLa cells were treated with 0.5 μg/ml of tunicamycin (Tm) for 5 hours in the presence of KUSs (50 μM), ATP (0.1, 0.3, and 1 mM), methylpyruvate (MePyr) (3 and 10 mM), or vehicle alone (DMSO). Then, cells were fixed and subjected to immunocytochemical analyses. Normally growing HeLa cells were also analyzed (Control). Scale bar, 10 μm. (b) Measurements of the relative amounts of ATP per cell. HeLa cells were treated with tunicamycin (Tm, 0.5 μg/ml) for 24 hours in the presence of KUSs (50 μM) or ATP (0.1 and 1 mM), or vehicle alone (DMSO), and were harvested. Then, ATP amounts from 1.5 × 10^5 cells were measured. * P < 0.05, ** P < 0.01. Error bars indicate SD. (c) Western blot analyses on CHOP. HeLa cells were treated with 0.5 μg/ml of tunicamycin for 5 hours in the presence of KUSs (50 μM), ATP (0.1, 0.3, and 1 mM), methylpyruvate (MePyr) (3 and 10 mM), or vehicle alone (-). Then, cells were harvested and subjected to western blot analyses. Actin served as a loading control. Complete scans of the different blots are presented in Supplementary Fig. 9.

Cc1cc(F)ccc1-c1ccc(/N=N/c2cc(S(=O)(=O)O)c3ccccc3c2N)cn1 [KUS121]
aggregation of laminin γ1: clearly prevented the aggregation of laminin γ1
